For experiment [1], the target named is Signal transducer and activator of transcription 3 (Homo sapiens, UniProt P40763). Description: Inhibition of human recombinant STAT3 (127 to 722 residues) transcriptional activity expressed in HEK293T cells in presence of IL-6 by Dual-luciferase reporter gene assay. It is filed as cell-based. (In general: A reporter such as luciferase makes a cellular process visible.)

The next experiment concerns MKN-45. The experiment is described as follows: Antiproliferative activity against human MKN-45 cells assessed as reduction in cell viability incubated for 72 hrs by MTS assay. It is filed as functional, cell-based. Conditions: MKN-45, 72 h.
A further experiment deals with AGS. Description: Antiproliferative activity against human AGS cells assessed as reduction in cell viability incubated for 72 hrs by MTS assay. It is filed as functional, cell-based. For orientation: Tetrazolium assays rely on reduction of a dye to a coloured formazan, in cell work by metabolically active cells.
Experiment [2] is described as follows: Inhibition of ATP production in human MKN-45 cells incubated for 20 to 24 hrs by ATP assay kit method. It is filed as functional, cell-based.
For another experiment, the system named is MGC-803. The experiment is described as follows: Antiproliferative activity against human MGC-803 cells assessed as reduction in cell viability incubated for 72 hrs by MTS assay. It is filed as functional, cell-based. Conditions: MGC-803, 72 h.

A value given as a limit tells only on which side of the number the result lay.

One may read the IC50 as the midpoint of a concentration-inhibition curve.

Chain of Signal transducer and activator of transcription 3 (P40763 whole entry, the tested form may be a part): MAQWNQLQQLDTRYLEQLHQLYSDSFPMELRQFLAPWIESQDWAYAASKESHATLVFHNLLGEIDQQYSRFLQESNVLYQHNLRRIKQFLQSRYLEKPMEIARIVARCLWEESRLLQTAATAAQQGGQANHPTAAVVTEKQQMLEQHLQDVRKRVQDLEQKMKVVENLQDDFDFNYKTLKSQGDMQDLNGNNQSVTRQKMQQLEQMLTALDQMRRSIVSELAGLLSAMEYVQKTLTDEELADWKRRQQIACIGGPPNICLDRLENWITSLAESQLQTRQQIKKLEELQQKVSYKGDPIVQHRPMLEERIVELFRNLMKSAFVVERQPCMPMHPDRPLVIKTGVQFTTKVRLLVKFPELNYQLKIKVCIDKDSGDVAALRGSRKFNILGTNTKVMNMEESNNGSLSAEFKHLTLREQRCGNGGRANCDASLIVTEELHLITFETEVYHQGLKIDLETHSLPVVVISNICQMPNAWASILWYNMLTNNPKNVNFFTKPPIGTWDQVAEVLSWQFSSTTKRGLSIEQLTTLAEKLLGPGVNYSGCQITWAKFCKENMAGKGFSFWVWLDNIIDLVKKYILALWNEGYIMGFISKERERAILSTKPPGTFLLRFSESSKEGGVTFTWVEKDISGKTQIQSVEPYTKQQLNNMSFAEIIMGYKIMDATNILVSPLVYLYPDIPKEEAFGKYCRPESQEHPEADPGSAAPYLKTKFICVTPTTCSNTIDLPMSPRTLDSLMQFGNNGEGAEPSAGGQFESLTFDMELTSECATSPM

`CS(=O)(=O)c1ccc(CN2CCN(C(=O)c3ccc(-c4nc(-c5ccc(C(F)(F)F)cc5)no4)nc3)CC2)cc1`: the IC50 in experiment [1] came to 273 nM.
Turning to `O=C(c1ccc(-c2nc(-c3ccc(C(F)(F)F)cc3)no2)nc1)N1CCN(Cc2ccc(Br)cc2)CC1`, the IC50 with MKN-45 was determined as 108 nM; in the experiment on AGS, 77.8 nM; in experiment [2], 520 nM; in experiment [1], 40.2 nM; in the experiment on MGC-803 it was 67.6 nM.
As for `O=C(c1ccc(-c2cn(-c3ccc(C(F)(F)F)cc3)nn2)nc1)N1CCN(Cc2ccc(OCC(F)(F)F)cc2)CC1`, the IC50 in experiment [1] stood at 113 nM.
As for `O=C(c1ccc(-c2nc(-c3ccc(OC(F)(F)F)cc3)no2)nc1)N1CCN(Cc2ccc(OCC(F)(F)F)cc2)CC1`, the IC50 with MKN-45 is 36.4 nM; in the experiment on AGS it was 23.5 nM; in experiment [2], 93.2 nM; in experiment [1] it was 60.2 nM; in the experiment with MGC-803, 23.3 nM.
In the case of `O=C(c1cccc(-c2nc(-c3ccc(C(F)(F)F)cc3)no2)c1)N1CCN(Cc2ccc(OCC(F)(F)F)cc2)CC1`, the half-inhibitory concentration (IC50) was determined as 41.6 nM in the experiment with MKN-45; 27.1 nM in the experiment on AGS; 55.9 nM in experiment [2]; 52.1 nM in experiment [1]; 28.1 nM in the experiment on MGC-803.
As to `O=C(c1ncccc1-c1nc(-c2ccc(C(F)(F)F)cc2)no1)N1CCN(Cc2ccc(OCC(F)(F)F)cc2)CC1`, the IC50 in experiment [1] is over 1000 nM.
On to `O=C(c1ccc(-c2nc(-c3ccccc3C(F)(F)F)no2)nc1)N1CCN(Cc2ccc(OCC(F)(F)F)cc2)CC1`, for which the IC50 in experiment [1] is over 1000 nM.
Consider `O=C(c1ccc(-c2nc(-c3ccc(C(F)(F)F)cc3)no2)nc1)N1CCN(Cc2ccc(OC(F)(F)F)cc2)CC1`, for which the half-inhibitory concentration (IC50) in the experiment on MKN-45 came out at 16.4 nM; in the experiment on AGS, 59.8 nM; in experiment [2], 598 nM; in experiment [1] it was 63.6 nM; with MGC-803 it was 12.7 nM.
As to `CC(C)(C)c1ccc(CN2CCN(C(=O)c3ccc(-c4nc(-c5ccc(C(F)(F)F)cc5)no4)nc3)CC2)cc1`, the IC50 in the experiment on MKN-45 amounted to 54.5 nM; in the experiment with AGS, 67.6 nM; in experiment [2] it was 200 nM; in experiment [1], 88.1 nM; in the experiment on MGC-803, 31.8 nM.
Regarding `CC(C)(C)c1ccc(-c2noc(-c3ccc(C(=O)N4CCN(Cc5ccc(OCC(F)(F)F)cc5)CC4)cn3)n2)cc1`, in experiment [1], the concentration for half-maximal inhibition (IC50) is over 1000 nM.
As for `O=C(c1ccc(-c2nc(-c3ncccn3)no2)nc1)N1CCN(Cc2ccc(OCC(F)(F)F)cc2)CC1`, the IC50 in experiment [1] was over 1000 nM.
Turning to `O=C(/C=C/c1ccc(OC(F)(F)F)cc1)N1CCN(C(=O)c2ccc(-c3nc(-c4ccc(C(F)(F)F)cc4)no3)nc2)CC1`, the IC50 in experiment [1] came out at 173 nM.
As to `O=C(c1ccc(-c2nc(-c3cccc(F)c3)no2)nc1)N1CCN(Cc2ccc(OCC(F)(F)F)cc2)CC1`, the IC50 in experiment [1] came to 177 nM.
`O=C(c1ccc(-c2nc(-c3ccc(C(F)(F)F)cc3)no2)nc1)N1CCN(Cc2ccc(Br)cc2F)CC1`: in experiment [1], the IC50 stood at 564 nM.
Regarding `O=C(c1ccc(-c2nc(-c3ccc(F)cc3)no2)nc1)N1CCN(Cc2ccc(OCC(F)(F)F)cc2)CC1`, in experiment [1], the IC50 turned out to be 123 nM.
As for `O=C(c1ccc(-c2nc(-c3cncs3)no2)nc1)N1CCN(Cc2ccc(OCC(F)(F)F)cc2)CC1`, the IC50 in experiment [1] was over 1000 nM.
`O=C(c1ccc(-c2nc(-c3ccc(C(F)(F)F)c(F)c3)no2)nc1)N1CCN(Cc2ccc(OCC(F)(F)F)cc2)CC1`: the IC50 in the experiment with MKN-45 amounted to 21.2 nM; with AGS, 21.5 nM; in experiment [2], 218 nM; in experiment [1] it was 40.2 nM; with MGC-803, 22.2 nM.
As for `COc1ccc(-c2noc(-c3ccc(C(=O)N4CCN(Cc5ccc(OCC(F)(F)F)cc5)CC4)cn3)n2)cc1`, the IC50 in experiment [1] is 113 nM.
For `O=C(c1ccc(-c2nc(-c3ccc(C(F)(F)F)cc3)no2)nc1)N1CCN(Cc2cccc(OC(F)(F)F)c2)CC1`, in experiment [1], the IC50 came out at 325 nM.
`O=C(Cc1ccc(OC(F)(F)F)cc1)N1CCN(C(=O)c2ccc(-c3nc(-c4ccc(C(F)(F)F)cc4)no3)nc2)CC1`: the IC50 in experiment [1] stood at 359 nM.
For the compound `O=C(c1ncc(-c2nc(-c3ccc(C(F)(F)F)cc3)no2)s1)N1CCN(Cc2ccc(OCC(F)(F)F)cc2)CC1`, the IC50 in experiment [1] was over 1000 nM.
Turning to `O=C(c1ccc(-c2nc(-c3cccc(C(F)(F)F)c3)no2)nc1)N1CCN(Cc2ccc(OCC(F)(F)F)cc2)CC1`, the IC50 in experiment [1] amounted to 130 nM.
Take `O=C(c1ccc(-c2nc(-c3ccc(C(F)(F)F)cc3)no2)s1)N1CCN(Cc2ccc(OCC(F)(F)F)cc2)CC1`: the IC50 in experiment [1] was determined as 167 nM.
With `Cc1ccc(-c2noc(-c3ccc(C(=O)N4CCN(Cc5ccc(OCC(F)(F)F)cc5)CC4)cn3)n2)cc1`, in experiment [1], the IC50 is 258 nM.
As to `CN1CCN(C(=O)c2ccc(-c3nc(-c4ccc(C(F)(F)F)cc4)no3)nc2)CC1`, in experiment [1], the IC50 amounted to 2790 nM.
For `O=C(c1ccc(-c2nc(-c3ccc(C(F)(F)F)cc3)cs2)nc1)N1CCN(Cc2ccc(OCC(F)(F)F)cc2)CC1`, the IC50 in experiment [1] was 516 nM.
Take `Cc1ccc(CN2CCN(C(=O)c3ccc(-c4nc(-c5ccc(C(F)(F)F)cc5)no4)nc3)CC2)cc1`: the IC50 in experiment [1] stood at 182 nM.
Regarding `O=C(c1ccc(-c2nc(-c3ccc(C(F)(F)F)cc3)no2)nc1)N1CCN(Cc2ccccc2OCC(F)(F)F)CC1`, in experiment [1], the IC50 is over 1000 nM.
Take `O=C(c1ccc(-c2nc(-c3ccc(C(F)(F)F)cc3C(F)(F)F)no2)nc1)N1CCN(Cc2ccc(OCC(F)(F)F)cc2)CC1`: the IC50 in experiment [1] is over 1000 nM.
Take `O=C(c1ccc(OC(F)(F)F)cc1)N1CCN(C(=O)c2ccc(-c3nc(-c4ccc(C(F)(F)F)cc4)no3)nc2)CC1`: the half-inhibitory concentration (IC50) in experiment [1] was over 1000 nM.
As to `O=C(c1ccc(-c2nc(-c3ccc(C(F)(F)F)cc3)no2)nc1)N1CCN(Cc2cccc(OCC(F)(F)F)c2)CC1`, the IC50 in experiment [1] stood at 803 nM.
Consider `O=C(c1ccc(-c2nc(-c3ccc(C(F)(F)F)cc3)no2)nc1)N1CCN(Cc2ccc(OCC(F)(F)F)cc2)CC1`, for which the IC50 with MKN-45 was found to be 18.4 nM; in the experiment with AGS it was 8.4 nM; in experiment [2], 72.5 nM; in experiment [1] it was 37.4 nM; in the experiment with MGC-803, 11.5 nM.
On to `O=C(c1ccc(-c2nc(-c3ccc(Cl)cc3)no2)nc1)N1CCN(Cc2ccc(OCC(F)(F)F)cc2)CC1`, for which the IC50 in experiment [1] was 271 nM.
As to `CC(=O)c1cc2c(o1)C(=O)c1ccccc1C2=O` [NAPABUCASIN], the IC50 in the experiment on MKN-45 is 3940 nM; in the experiment on AGS, 437 nM; in the experiment on MGC-803, 872 nM.
Turning to `O=C(c1ccc(-c2nc(-c3ccc(Br)cc3)no2)nc1)N1CCN(Cc2ccc(OCC(F)(F)F)cc2)CC1`, the IC50 in experiment [1] was 93.2 nM.
With `O=C(c1ccc(-c2nc(-c3cccs3)no2)nc1)N1CCN(Cc2ccc(OCC(F)(F)F)cc2)CC1`, the IC50 in experiment [1] is over 1000 nM.
For `O=C(c1ccc(-c2nc(-c3ccccc3)no2)nc1)N1CCN(Cc2ccc(OCC(F)(F)F)cc2)CC1`, the IC50 in experiment [1] is over 1000 nM.
For `O=C(c1ccc(-c2nc(-c3ccc(C(F)(F)F)cc3)no2)nc1)N1CCN(Cc2c(F)cc(Br)cc2F)CC1`, the IC50 in experiment [1] was over 1000 nM.
On to `O=C(c1ccc(-c2nc(-c3ccc(C(F)(F)F)cc3)no2)nc1)N1CCN(Cc2ccc(NCC(F)(F)F)cc2)CC1`, for which, in experiment [1], the IC50 was over 1000 nM.
In the case of `CC(=O)Oc1ccc(CN2CCN(C(=O)c3ccc(-c4nc(-c5ccc(C(F)(F)F)cc5)no4)nc3)CC2)cc1`, the IC50 in experiment [1] is 306 nM.
With `O=C(c1ccc(-c2nc(-c3ccc(C(F)(F)F)cc3)no2)cn1)N1CCN(Cc2ccc(OCC(F)(F)F)cc2)CC1`, the IC50 with MKN-45 amounted to 24.6 nM; in the experiment with AGS, 22.8 nM; in experiment [2] it was 97.8 nM; in experiment [1], 75.9 nM; in the experiment on MGC-803 it was 15.3 nM.
For `CCCN1CCN(C(=O)c2ccc(-c3nc(-c4ccc(C(F)(F)F)cc4)no3)nc2)CC1`, the concentration for half-maximal inhibition (IC50) in experiment [1] was found to be 533 nM.
On to `O=C(c1cc(-c2nc(-c3ccc(C(F)(F)F)cc3)no2)ccn1)N1CCN(Cc2ccc(OCC(F)(F)F)cc2)CC1`, for which the IC50 amounted to 153 nM in the experiment with MKN-45; 8.7 nM in the experiment on AGS; 87.6 nM in experiment [2]; 32.3 nM in experiment [1]; 13.1 nM in the experiment on MGC-803.
Turning to `Nc1ccc(CN2CCN(C(=O)c3ccc(-c4nc(-c5ccc(C(F)(F)F)cc5)no4)nc3)CC2)cc1`, the IC50 in experiment [1] is over 1000 nM.
As to `O=C(c1ccc(-c2nc(-c3ccc(C(F)(F)F)cc3)co2)nc1)N1CCN(Cc2ccc(OCC(F)(F)F)cc2)CC1`, in experiment [1], the IC50 was determined as 94.1 nM.
Turning to `O=C(c1cnc(-c2noc(-c3ccc(C(F)(F)F)cc3)n2)cn1)N1CCN(Cc2ccc(OCC(F)(F)F)cc2)CC1`, the IC50 stood at 49.5 nM in the experiment with MKN-45; 27.2 nM with AGS; 242 nM in experiment [2]; 58 nM in experiment [1]; 32.4 nM in the experiment on MGC-803.
As for `O=C(c1ccc(-c2nc(-c3ccc(C(F)(F)F)cc3)no2)nc1)N1CCN(Cc2ccccc2OC(F)(F)F)CC1`, in experiment [1], the IC50 was over 1000 nM.
On the same count and under the same terms, under `COc1ccc(CN2CCN(C(=O)c3ccc(-c4nc(-c5ccc(C(F)(F)F)cc5)no4)nc3)CC2)cc1` stands 147 nM; under `N#Cc1ccc(CN2CCN(C(=O)c3ccc(-c4nc(-c5ccc(C(F)(F)F)cc5)no4)nc3)CC2)cc1`, 477 nM; under `O=C(c1ccc(-c2nc(-c3ccc(C(F)(F)F)cc3)no2)nc1)N1CCN(Cc2ccc(Cl)cc2)CC1`, 108 nM.
As to `CCN1CCN(C(=O)c2ccc(-c3nc(-c4ccc(C(F)(F)F)cc4)no3)nc2)CC1`, the IC50 in experiment [1] was over 1000 nM.
The same measure, in the same setting: then `O=C(c1ccc(-c2nc(-c3ccccc3F)no2)nc1)N1CCN(Cc2ccc(OCC(F)(F)F)cc2)CC1`, with over 1000 nM.
The same measure, in the same setting: then `O=C(c1ccc(-c2nc(-c3ccc(C(F)(F)F)cc3)no2)nc1)N1CCN(Cc2ccc(Br)c(F)c2)CC1`, with 296 nM; and `O=C(c1ccccc1-c1nc(-c2ccc(C(F)(F)F)cc2)no1)N1CCN(Cc2ccc(OCC(F)(F)F)cc2)CC1`, with over 1000 nM.
As to `O=C(c1ccc(-c2nc(-c3ccc(C(F)(F)F)cc3)no2)nc1)N1CCN(Cc2ccc(F)cc2)CC1`, in experiment [1], the IC50 amounted to 304 nM.
